{"source": "paper PMC7114283", "about": "(Antiviral Research, 2010)", "key": {"TGEV [1]": {"system": "TGEV", "experiment": "microbe, parasite or virus in culture", "settings": "Alphacoronavirus 1"}, "SARS CoV 3CLpro": {"biological_target": "SARS CoV 3CLpro (Severe acute respiratory syndrome coronavirus, UniProt P0C6X7)", "format": "biochemical"}, "in vitro": {"experiment": "in vitro", "settings": "swine"}, "in vivo": {"experiment": "in vivo", "settings": "male, Sprague-Dawley, rat, 3 mg/kg"}, "TGEV [2]": {"system": "TGEV"}, "TGEV 3CLpro": {"biological_target": "TGEV 3CLpro (Porcine transmissible gastroenteritis coronavirus, UniProt P0C6Y5)", "sequence (P0C6Y5 2879-3180 limits assumed)": "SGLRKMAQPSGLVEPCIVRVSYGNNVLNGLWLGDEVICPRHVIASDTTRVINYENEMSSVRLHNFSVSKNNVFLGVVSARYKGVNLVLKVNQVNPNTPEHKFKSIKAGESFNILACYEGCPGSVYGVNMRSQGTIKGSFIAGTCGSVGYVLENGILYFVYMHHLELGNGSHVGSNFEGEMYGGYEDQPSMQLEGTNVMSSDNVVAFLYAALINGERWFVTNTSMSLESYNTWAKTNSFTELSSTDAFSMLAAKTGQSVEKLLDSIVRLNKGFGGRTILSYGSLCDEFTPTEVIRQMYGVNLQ", "format": "biochemical, transmissible gastroenteritis virus"}, "[3]": {"settings": "male, Sprague-Dawley, rat, in vivo, 3 mg/kg"}, "SARS CoV Urbani strain [4]": {"system": "SARS CoV Urbani strain"}, "SARS CoV Urbani strain [5]": {"system": "SARS CoV Urbani strain", "format": "cell-based, human severe acute respiratory syndrome coronavirus"}, "Vero 76 cells [6]": {"system": "Vero 76 cells"}, "Vero 76 cells [7]": {"system": "Vero 76 cells", "remark": "listed apart in the source"}}, "note": "Like-named read-outs stand apart in the source and are kept apart here. Marks after values point to notes of the source that are not given here."}
{"molecule": "COc1cc2c3c(c4cc(OC)c(OC)cc4c2cc1OC)CN1CCC[C@@H]1C3", "note": "[Compound 1a, Tylophorine]", "values": [{"measurement": "EC50", "setting": "TGEV [1]", "result": "58 ± 4", "unit": "nM"}, {"measurement": "Inhibition of SARS CoV 3CLpro enzymatic activity", "setting": "SARS CoV 3CLpro", "result": "did not significantly inhibit"}, {"measurement": "CC50", "setting": "in vitro", "result": "> 100000", "unit": "nM"}, {"measurement": "bioavailability", "setting": "in vivo", "result": 65.7, "unit": "%"}, {"measurement": "AUC(0-inf)", "setting": "in vivo; iv", "result": 772, "unit": "ng·h/mL"}, {"measurement": "clearance", "setting": "in vivo; iv", "result": 66.8, "unit": "mL/min/kg"}, {"measurement": "AUC(0-inf)", "setting": "in vivo; po", "result": 507, "unit": "ng·h/mL"}, {"measurement": "Cmax", "setting": "in vivo; po", "result": 31.9, "unit": "ng/mL"}, {"measurement": "Tmax", "setting": "in vivo; po", "result": 1.8, "unit": "h"}, {"measurement": "SI (CC50/EC50)", "setting": "TGEV [2]", "result": ">1715"}, {"measurement": "Inhibition of TGEV 3CLpro enzymatic activity", "setting": "TGEV 3CLpro", "result": "did not significantly inhibit"}, {"measurement": "Ctrough", "setting": "[3]; iv", "result": 1.1, "unit": "ng/mL"}, {"measurement": "t1/2 (apparent elimination half-life)", "setting": "[3]; iv", "result": "3.9 ^b h"}, {"measurement": "Ctrough", "setting": "[3]; po", "result": 3.0, "unit": "ng/mL"}, {"measurement": "Visual assay SI (CC50/EC50)", "setting": "SARS CoV Urbani strain [4]", "result": 88}]}
{"molecule": "3,14a-dihydroxy-6,7-dimethoxyphenanthroindolizidine [Compound 1h]", "values": [{"measurement": "EC50", "setting": "TGEV [2]", "result": "18 ± 1", "unit": "nM"}, {"measurement": "SI (CC50/EC50)", "setting": "TGEV [2]", "result": 1719}, {"measurement": "CC50", "setting": "ST cells", "result": 31600, "unit": "nM"}]}
{"molecule": "interferon alfacon-1 [Infergen™]", "values": [{"measurement": "Neutral red uptake assay EC50", "setting": "SARS CoV Urbani strain [5]", "result": 2.4, "unit": "µg/mL"}, {"measurement": "Neutral red uptake assay CC50", "setting": "Vero 76 cells [6]", "result": ">130", "unit": "µg/mL"}, {"measurement": "Visual assay CC50", "setting": "Vero 76 cells [7]", "result": ">100", "unit": "µg/mL"}, {"measurement": "Visual assay EC50", "setting": "SARS CoV Urbani strain [4]", "result": "<0.32", "unit": "µg/mL"}, {"measurement": "Visual assay SI (CC50/EC50)", "setting": "SARS CoV Urbani strain [4]", "result": ">320"}]}
{"molecule": "COc1ccc2c3c(c4cc(OC)c(OC)cc4c2c1)CN1CCC[C@H]1[C@@H]3O", "note": "[Compound 1e, tylophorinine]", "values": [{"measurement": "EC50", "setting": "TGEV [1]", "result": "82 ± 8", "unit": "nM"}, {"measurement": "CC50", "setting": "in vitro", "result": "> 100000", "unit": "nM"}, {"measurement": "SI (CC50/EC50)", "setting": "TGEV [2]", "result": ">1220"}]}
{"molecule": "COc1cc2c3c(c4cc(OC)c(OC)cc4c2cc1OC)CN1CCC[C@@H]1C3", "note": "[1a′, tylophorine]", "values": [{"measurement": "EC50", "setting": "TGEV [2]", "result": "95 ± 17", "unit": "nM"}, {"measurement": "SI (CC50/EC50)", "setting": "TGEV [2]", "result": ">1053"}, {"measurement": "CC50", "setting": "ST cells; swine", "result": "> 100000", "unit": "nM"}]}
